This data set deals with CCRIS mutagenicity, Ames/micronucleus/aberration tests. Briefly: CCRIS mutagenicity studies.
[1] abbreviates: Test System: AMES SALMONELLA TYPHIMURIUM, Strain/Indicator: TA98, Metabolic Activation: NONE, Method: PREINCUBATION
Setting [2] is: Test System: AMES SALMONELLA TYPHIMURIUM, Strain/Indicator: TA100, Metabolic Activation: NONE, Method: PREINCUBATION
[3] abbreviates: Test System: AMES SALMONELLA TYPHIMURIUM, Strain/Indicator: TA1535, Metabolic Activation: NONE, Method: PREINCUBATION
Where [4] appears, read: Test System: AMES SALMONELLA TYPHIMURIUM, Strain/Indicator: TA1537, Metabolic Activation: NONE, Method: PREINCUBATION
The mark [5] stands for this setting: Test System: AMES SALMONELLA TYPHIMURIUM, Strain/Indicator: TA1535, Metabolic Activation: NONE, Method: STANDARD PLATE.
[6] abbreviates: Test System: AMES SALMONELLA TYPHIMURIUM, Strain/Indicator: TA98, Metabolic Activation: NONE, Method: STANDARD PLATE.
Where [7] appears, read: Test System: AMES SALMONELLA TYPHIMURIUM, Strain/Indicator: TA100, Metabolic Activation: NONE, Method: STANDARD PLATE.

Molecules are shown by their SMILES. Active and inactive are the calls of the source. How the calls were made is not given here. Where a SMILES comes first, the peptide text is derived from it.

Turning to `c1ccc(N=NNc2ccccc2)cc1`, the mutagenic call is, setting by setting: (End Point: IN VIVO MICRONUCLEUS, Test System: BONE MARROW, Species: MOUSE, Strain/Sex: B6C3F1/MALE, Route: GAVAGE) “active; positive”; (Test System: AMES SALMONELLA TYPHIMURIUM, Strain/Indicator: TA98, Metabolic Activation: HAMSTER, LIVER, S-9, AROCLOR 1254 (10%), Method: PREINCUBATION) “active; positive”; under setting [1], “inactive; negative”; (Test System: AMES SALMONELLA TYPHIMURIUM, Strain/Indicator: TA98, Metabolic Activation: RAT, LIVER, S-9, AROCLOR 1254 (10%), Method: PREINCUBATION) “active; positive”; (Test System: AMES SALMONELLA TYPHIMURIUM, Strain/Indicator: TA100, Metabolic Activation: HAMSTER, LIVER, S-9, AROCLOR 1254 (10%), Method: PREINCUBATION) “active; positive”; under setting [2], “inactive; negative”. Also, the mutagenic call by setting is: (Test System: AMES SALMONELLA TYPHIMURIUM, Strain/Indicator: TA100, Metabolic Activation: RAT, LIVER, S-9, AROCLOR 1254 (10%), Method: PREINCUBATION) “active; positive”; (Test System: AMES SALMONELLA TYPHIMURIUM, Strain/Indicator: TA1535, Metabolic Activation: HAMSTER, LIVER, S-9, AROCLOR 1254 (10%), Method: PREINCUBATION) “inactive; negative”; under setting [3], “inactive; negative”; (Test System: AMES SALMONELLA TYPHIMURIUM, Strain/Indicator: TA1535, Metabolic Activation: RAT, LIVER, S-9, AROCLOR 1254 (10%), Method: PREINCUBATION) “inactive; negative”; (Test System: AMES SALMONELLA TYPHIMURIUM, Strain/Indicator: TA1537, Metabolic Activation: HAMSTER, LIVER, S-9, AROCLOR 1254 (10%), Method: PREINCUBATION) “active; positive”; under setting [4], “inactive; negative”. Besides, the mutagenic call (Test System: AMES SALMONELLA TYPHIMURIUM, Strain/Indicator: TA1537, Metabolic Activation: RAT, LIVER, S-9, AROCLOR 1254 (10%), Method: PREINCUBATION) was “active; positive”.
Turning to `Fc1cnc2ccc3cccnc3c2c1`, where the note is “Test System: AMES SALMONELLA TYPHIMURIUM, Strain/Indicator: TA100, Metabolic Activation: RAT, LIVER, S-9, PHENOBARBITAL AND 5,6-BENZOFLAVONE, Method: PREINCUBATION”, the mutagenic call is “active; positive”.
`CCN=NNCC`: the mutagenic call under setting [5] was “active; positive”.
Consider `N[C@@H](CSc1c(Cl)c(Cl)c(Cl)c(Cl)c1Cl)C(=O)O`, for which the mutagenic call under setting [1] is “inactive; negative”; the mutagenic call (Test System: AMES SALMONELLA TYPHIMURIUM, Strain/Indicator: TA98, Metabolic Activation: RAT, LIVER OR KIDNEY, MICROSOMES, Method: PREINCUBATION) is “inactive; negative”; the mutagenic call under setting [2] is “inactive; negative”; the mutagenic call (Test System: AMES SALMONELLA TYPHIMURIUM, Strain/Indicator: TA100, Metabolic Activation: RAT, LIVER OR KIDNEY, MICROSOMES, Method: PREINCUBATION) was “inactive; negative”; the mutagenic call (Test System: AMES SALMONELLA TYPHIMURIUM, Strain/Indicator: TA102, Metabolic Activation: NONE, Method: PREINCUBATION) is “inactive; negative”; the mutagenic call (Test System: AMES SALMONELLA TYPHIMURIUM, Strain/Indicator: TA102, Metabolic Activation: RAT, LIVER OR KIDNEY, MICROSOMES, Method: PREINCUBATION) is “inactive; negative”. In addition, the mutagenic call was “inactive; negative” (Test System: AMES SALMONELLA TYPHIMURIUM, Strain/Indicator: TA2638, Metabolic Activation: NONE, Method: PREINCUBATION) and “inactive; negative” (Test System: AMES SALMONELLA TYPHIMURIUM, Strain/Indicator: TA2638, Metabolic Activation: RAT, LIVER OR KIDNEY, MICROSOMES, Method: PREINCUBATION).
Regarding `NCCCC[C@H](NC(=O)[C@H](Cc1c[nH]c2ccccc12)NC(=O)[C@@H](N)CCCCN)C(=O)O` (H-Lys-Trp-Lys-OH), the mutagenic call reads like this: under setting [6], “inactive; negative”; (Test System: AMES SALMONELLA TYPHIMURIUM, Strain/Indicator: TA98, Metabolic Activation: RAT, LIVER, S-9, AROCLOR 1254, Method: STANDARD PLATE) “inactive; negative”; under setting [7], “inactive; negative”; (Test System: AMES SALMONELLA TYPHIMURIUM, Strain/Indicator: TA100, Metabolic Activation: RAT, LIVER, S-9, AROCLOR 1254, Method: STANDARD PLATE) “inactive; negative”; under setting [5], “inactive; negative”; (Test System: AMES SALMONELLA TYPHIMURIUM, Strain/Indicator: TA1535, Metabolic Activation: RAT, LIVER, S-9, AROCLOR 1254, Method: STANDARD PLATE) “inactive; negative”. Besides, the mutagenic call was “inactive; negative” (Test System: AMES SALMONELLA TYPHIMURIUM, Strain/Indicator: TA1537, Metabolic Activation: NONE, Method: STANDARD PLATE) and “inactive; negative” (Test System: AMES SALMONELLA TYPHIMURIUM, Strain/Indicator: TA1537, Metabolic Activation: RAT, LIVER, S-9, AROCLOR 1254, Method: STANDARD PLATE).
Regarding `CCOc1ccc2c(c1)C(C)=CC(C)(C)N2`, the mutagenic call by setting is: under setting [6], “inactive; negative”; (Test System: AMES SALMONELLA TYPHIMURIUM, Strain/Indicator: TA98, Metabolic Activation: S-9, Method: STANDARD PLATE) “inactive; negative”; under setting [7], “inactive; negative”; (Test System: AMES SALMONELLA TYPHIMURIUM, Strain/Indicator: TA100, Metabolic Activation: S-9, Method: STANDARD PLATE) “inactive; negative”.
Take `O=[N+]([O-])c1cccc(Cl)c1Cl`: the mutagenic call is, setting by setting: (Test System: AMES SALMONELLA TYPHIMURIUM, Strain/Indicator: TA98, Metabolic Activation: HAMSTER, LIVER, S-9, AROCLOR 1254, Method: PREINCUBATION) “inactive; negative”; under setting [1], “inactive; negative”; (Test System: AMES SALMONELLA TYPHIMURIUM, Strain/Indicator: TA98, Metabolic Activation: RAT, LIVER, S-9, AROCLOR 1254, Method: PREINCUBATION) “inactive; negative”; (Test System: AMES SALMONELLA TYPHIMURIUM, Strain/Indicator: TA100, Metabolic Activation: HAMSTER, LIVER, S-9, AROCLOR 1254, Method: PREINCUBATION) “inactive; negative”; under setting [2], “inactive; negative”; under setting [7], “inactive; negative”. Moreover, the mutagenic call was “inactive; negative” (Test System: AMES SALMONELLA TYPHIMURIUM, Strain/Indicator: TA100, Metabolic Activation: RAT, LIVER, S-9, AROCLOR 1254, Method: PREINCUBATION); “inactive; negative” (Test System: AMES SALMONELLA TYPHIMURIUM, Strain/Indicator: TA1535, Metabolic Activation: HAMSTER, LIVER, S-9, AROCLOR 1254, Method: PREINCUBATION); “inactive; negative” under setting [3]; “inactive; negative” (Test System: AMES SALMONELLA TYPHIMURIUM, Strain/Indicator: TA1535, Metabolic Activation: RAT, LIVER, S-9, AROCLOR 1254, Method: PREINCUBATION); “inactive; negative” (Test System: AMES SALMONELLA TYPHIMURIUM, Strain/Indicator: TA1537, Metabolic Activation: HAMSTER, LIVER, S-9, AROCLOR 1254, Method: PREINCUBATION); “inactive; negative” under setting [4]. For the setting “Test System: AMES SALMONELLA TYPHIMURIUM, Strain/Indicator: TA1537, Metabolic Activation: RAT, LIVER, S-9, AROCLOR 1254, Method: PREINCUBATION”, the mutagenic call was “inactive; negative”.
In the case of `NC(=O)N(CCCl)N=O`, the mutagenic call runs as follows: (Test System: CHINESE HAMSTER V-79, Strain/Indicator: V-79/6-THIOGUANINE, Metabolic Activation: NONE, Method: STANDARD PLATE) “active; positive”; (Test System: E. COLI B, Strain/Indicator: H/R30R, Metabolic Activation: NONE) “active; positive”; (Test System: E. COLI B, Strain/Indicator: HS30R, Metabolic Activation: NONE) “active; positive”.

(Values after PubChem BioAssay AID1259407 (Chemical Carcinogenesis Research Information System (CCRIS), 2018).)
